Patent publication US9006440B2, “Furopyridine derivatives” (Merck Patent GmbH, priority 2010, dated 2015)

Legend:
[1] = biological target: T1, Syk (Homo sapiens, UniProt P43405); test: Syk enzyme assay (SYK flash plate assay / Caliper mobility shift); type: biochemical
T1 construct: purchased BPS Bioscience, CA, USA
Experimental: The kinase assay is performed either as 384-well Flashplate assay (for e.g. Topcount measurement) or as 384-well Image-Flashplate assay (for LEADseeker measurement).
2.5 nM SYK, 400 nM Biotin-Aha-Aha-KEDPDYEWPSAKK
and 10 μM ATP (spiked with 0.3 μCi 33P-ATP/well) are incubated in a total volume of 50 μl (60 mM Hepes, 10 mM MgCl2, 1.2 mM Dithiothreitol, 0.02% Brij35, 0.1% BSA, pH 7.5) with or without test compound for 1 hours at 30° C. The reaction is stopped with 25 μl 200 mM EDTA. After 30 Min at 30° C. the liquid is removed and each well washed thrice with 100 μl 0.9% sodium chloride solution. Non-specific reaction is determined in presence of 0.1 μM Staurosporine. Radioactivity is measured with Topcount (when using Flashplates) or with LEADseeker (when using Image-Flashplates) respectively. Results (e.g. IC50-values) are calculated with program tools provided by the IT-department (e.g. Symyx Assay Explorer, Genedata Screener). Enzymatic Assays Using the Caliper LifeSciences Technology
(§1) The assays described here are performed on the Caliper Life Sciences LC3000 system This technology provides data on enzyme activity via measurement of the relative amounts of phosphorylated or unphosphorylated fluorescently labelled substrate peptide at the end of an enzymatic reaction. These different states of peptide are resolved by applying a potential difference across the sample. The presence of the charged phosphate group on the product (as opposed to the substrate) causes a different peptide mobility between the two peptides. This is visualized by excitation of the fluorescent label on the substrate and product peptides and represented as peaks within the analysis software.
(§2) In order to measure inhibitor activity of kinase inhibitors on this technology, a TTP Mosquito liquid handling instrument is used to place 0.25 ul of the appropriate concentration of inhibitor in 100% DMSO (for a dose response curve calculation) into each well of a 384-well plate. To this reaction components are added to a final volume of 25 ul. The table below indicates the sequences and concentrations for the assays described in this report. Standard components are 1 mM DTT (Sigma, D0632), 1 mM MgCl2 (Sigma, M1028), 100 mM HEPES pH 7.5 (Calbiochem, 391338), 0.015% Brij-35 (Sigma, B4184).
(§3) The reaction is incubated for 90 min at 25 C, and then stopped by the addition of 70 ul of Stop buffer (100 mM HEPES pH 7.5, 0.015% Brij-35, 10 mM EDTA (Sigma, E7889)).
(§4) The plate is read on a Caliper LC 3000 in an Off-Chip mobility shift assay format, on a 12-sipper chip. Unphosphorylated substrate and phosphorylated product peptide resolve as separate peaks allowing direct measurement of percentage of conversion of substrate to product. The percent conversion can be plotted against concentration of inhibitor to produce a sigmoidal dose response curve, from which an IC50 can be calculated using GeneData Condoseo or a similar product.

[2] = biological target: T2, KDR (Homo sapiens, UniProt P35968); test: KDR enzymatic assay (Caliper LifeSciences technology); type: biochemical
T2 construct: purchased BPS Bioscience, CA, USA
T2 sequence (P35968 20-1356): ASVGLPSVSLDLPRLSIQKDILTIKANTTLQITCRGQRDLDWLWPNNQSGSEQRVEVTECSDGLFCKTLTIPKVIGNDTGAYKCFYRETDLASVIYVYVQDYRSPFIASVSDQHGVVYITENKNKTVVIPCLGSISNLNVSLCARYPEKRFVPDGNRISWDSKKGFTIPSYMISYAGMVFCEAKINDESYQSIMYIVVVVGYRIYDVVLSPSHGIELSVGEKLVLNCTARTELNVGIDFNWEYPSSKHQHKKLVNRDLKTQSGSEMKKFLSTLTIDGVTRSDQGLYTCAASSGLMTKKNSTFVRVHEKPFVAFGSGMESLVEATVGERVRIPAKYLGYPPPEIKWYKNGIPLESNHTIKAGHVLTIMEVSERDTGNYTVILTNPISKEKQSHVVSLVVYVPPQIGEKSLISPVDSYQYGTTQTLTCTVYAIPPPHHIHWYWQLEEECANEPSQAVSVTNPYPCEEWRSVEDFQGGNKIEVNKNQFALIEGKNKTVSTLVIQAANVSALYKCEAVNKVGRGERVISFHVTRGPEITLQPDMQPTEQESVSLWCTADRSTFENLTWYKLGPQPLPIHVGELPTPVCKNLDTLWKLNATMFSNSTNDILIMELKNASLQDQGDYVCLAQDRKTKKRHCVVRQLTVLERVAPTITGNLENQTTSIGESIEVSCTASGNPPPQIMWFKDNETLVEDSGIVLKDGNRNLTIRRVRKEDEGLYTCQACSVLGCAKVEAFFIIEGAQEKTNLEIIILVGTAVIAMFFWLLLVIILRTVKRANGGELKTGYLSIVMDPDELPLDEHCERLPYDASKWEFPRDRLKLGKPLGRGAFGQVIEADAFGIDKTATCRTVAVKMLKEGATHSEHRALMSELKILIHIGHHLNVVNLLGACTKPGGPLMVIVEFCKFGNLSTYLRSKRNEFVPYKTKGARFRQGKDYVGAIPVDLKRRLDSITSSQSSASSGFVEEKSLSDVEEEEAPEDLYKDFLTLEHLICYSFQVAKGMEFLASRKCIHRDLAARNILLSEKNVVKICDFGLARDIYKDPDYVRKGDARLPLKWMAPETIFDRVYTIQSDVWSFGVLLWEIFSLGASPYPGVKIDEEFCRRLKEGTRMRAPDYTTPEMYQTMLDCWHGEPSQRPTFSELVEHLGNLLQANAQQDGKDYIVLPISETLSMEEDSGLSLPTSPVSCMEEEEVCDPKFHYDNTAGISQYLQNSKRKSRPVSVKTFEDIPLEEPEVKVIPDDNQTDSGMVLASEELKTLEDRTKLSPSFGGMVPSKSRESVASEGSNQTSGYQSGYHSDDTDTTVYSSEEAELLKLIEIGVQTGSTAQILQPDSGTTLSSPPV
Experimental: as §1, §2, §3, §4

Compound	IC50 [1] [µM]	IC50 [2] [µM]
COC(=O)c1cccc(-c2cc3nccc(-c4ccccc4)c3o2)c1 [Compound A19, 3-(7-Phenyl-furo[3,2-b]pyridin-2-yl)-benzoic acid methyl ester]	3 to 50	3 to 50
COc1cc(-c2cc3nccc(Nc4ccc5c(c4)NC(=O)C(F)(F)O5)c3o2)cc(OC)c1OC [Compound B10, 2,2-Difluoro-6-[2-(3,4,5-trimethoxy-phenyl)-furo[3,2-b]pyridin-7-ylamino]-4H-benzo[1,4]oxazin-3-one]	0.3 to 3	< 0.3
COc1cccc(-c2cc3nccc(-c4cccc(OC)c4)c3o2)c1 [Compound B43, 2,7-Bis-(3-methoxy-phenyl)-furo[3,2-b]pyridine]	3 to 50	3 to 50
CC(C)(O)c1ccc(-c2cc3nccc(-c4ccc(C(C)(C)O)cc4)c3o2)cc1 [Compound B45, 2-(4-{2-[4-(1-Hydroxy-1-methyl-ethyl)-phenyl]-furo[3,2-b]pyridin-7-yl}-phenyl)-propan-2-ol]	0.3 to 3	0.3 to 3
Oc1cccc(-c2cc3nccc(-c4ccccc4)c3o2)c1 [Compound C1]	0.3 to 3	–
CC(C)Cn1cc(-c2cc3nccc(-c4cnn(C)c4)c3o2)cn1 [Compound C6]	0.3 to 3	–
COc1cc(-c2cc3nccc(-c4cccc(C(=O)NCC5CCCN5C(=O)OC(C)(C)C)c4)c3o2)cc(OC)c1OC (centres unmarked) [Compound C7]	0.3 to 3	–
Cc1cc(-c2cc3nccc(-c4cnn(C)c4)c3o2)cc(C(C)(C)C)c1 [Compound C9]	0.3 to 3	–
COc1cccc(-c2cc3nccc(-c4ccccc4)c3o2)c1 [Compound C15]	0.3 to 3	–
COc1cc(-c2cc3nccc(-c4cnn(C)c4)c3o2)ccn1 [Compound C16]	0.3 to 3	–
Cn1cc(-c2ccnc3cc(-c4ccc5c(c4)OCCO5)oc23)cn1 [Compound C17]	0.3 to 3	0.3 to 3
Cn1cc(-c2ccnc3cc(-c4ccc5[nH]ccc5c4)oc23)cn1 [Compound C18]	0.3 to 3	0.3 to 3
Cn1cc(-c2ccnc3cc(-c4ccc5cc[nH]c5c4)oc23)cn1 [Compound C19]	< 0.3	3 to 50
Cn1cc(-c2ccnc3cc(-c4cccc(OCc5ccccc5)c4)oc23)cn1 [Compound C20]	3 to 50	–
Cc1noc(C)c1-c1cc2nccc(-c3cnn(C)c3)c2o1 [Compound C22]	0.3 to 3	–
Cn1cc(-c2ccnc3cc(-c4ccc(N5CCOCC5)nc4)oc23)cn1 [Compound C24]	0.3 to 3	0.3 to 3
c1ccc(-c2ccnc3cc(-c4ccc(N5CCOCC5)nc4)oc23)cc1 [Compound C25]	0.3 to 3	–
O=C(Nc1cccc(-c2cc3nccc(-c4ccccc4)c3o2)c1)[C@@H]1CCCN1 [Compound C31]	0.3 to 3	0.3 to 3

Compound	IC50 [1] [µM]	IC50 [2] [µM]
Cn1cc(-c2ccnc3cc(-c4ccc(OC(F)(F)F)cc4)oc23)cn1 [Compound C32]	0.3 to 3	–
COc1ccc(-c2cc3nccc(-c4cnn(C)c4)c3o2)cc1 [Compound C33]	0.3 to 3	0.3 to 3
Cn1cc(-c2ccnc3cc(-c4ccc(S(C)(=O)=O)cc4)oc23)cn1 [Compound C34]	0.3 to 3	3 to 50
Cn1cc(-c2ccnc3cc(-c4ccc(OCCN5CCCCC5)cc4)oc23)cn1 [Compound C36]	0.3 to 3	–
Cn1cc(-c2ccnc3cc(-c4ccc(OCC(O)CN5CCOCC5)cc4)oc23)cn1 (centres unmarked) [Compound C37]	0.3 to 3	0.3 to 3
Cn1cc(-c2ccnc3cc(-c4ccc(OCC(O)CN5CCCCC5)cc4)oc23)cn1 (centres unmarked) [Compound C38]	0.3 to 3	–
c1cncc(-c2ccnc3cc(-c4ccc(N5CCOCC5)nc4)oc23)c1 [Compound C39]	3 to 50	–
CC(C)c1cccc(-c2cc3nccc(-c4cnn(C)c4)c3o2)c1 [Compound C45]	0.3 to 3	3 to 50
Cn1cc(-c2ccnc3cc(-c4ccc(N5CCOCC5)cc4)oc23)cn1 [Compound C49]	0.3 to 3	0.3 to 3
c1ccc(-c2ccnc3cc(-c4ccc(N5CCOCC5)cc4)oc23)cc1 [Compound C50]	0.3 to 3	–
Cn1cc(-c2ccnc3cc(-c4ccc([S+](C)[O-])cc4)oc23)cn1 (centres unmarked) [Compound C54]	0.3 to 3	–
Cn1cc(-c2ccnc3cc(-c4ccc(CO)cc4)oc23)cn1 [Compound C59]	0.3 to 3	0.3 to 3
COc1cc(-c2cc3nccc(-c4cnn(C)c4)c3o2)ccc1OCCNC(=O)OC(C)(C)C [Compound C62]	0.3 to 3	0.3 to 3
CC(=O)c1ccc(-c2cc3nccc(-c4cnn(C)c4)c3o2)cc1 [Compound C95]	0.3 to 3	–
CN1CCN(c2cc(-c3cc4nccc(-c5ccnc(N6CCN(C)CC6)c5)c4o3)ccn2)CC1 [Compound C96]	3 to 50	–
Cn1cc(-c2ccnc3cc(-c4ccc(C(C)(C)O)cc4)oc23)cn1 [Compound C100]	< 0.3	–
Cn1cc(-c2ccnc3cc(-c4ccc5cn[nH]c5c4)oc23)cn1 [Compound C133]	< 0.3	–
Cn1ncc2cc(-c3cc4nccc(-c5cccc(C(=O)N[C@@H]6CCCC[C@@H]6N)c5)c4o3)ccc21 [Compound C175]	< 0.3	–

More lines, now with the values ahead:

IC50 [1] [µM]	IC50 [2] [µM]	Compound
< 0.3	0.3 to 3	CNC(=O)c1ccc(-c2ccnc3cc(-c4cc(OC)c(OC)c(OC)c4)oc23)cc1 [Compound A13, N-Methyl-4-[2-(3,4,5-trimethoxy-phenyl)-furo[3,2-b]pyridin-7-yl]-benzamide]
< 0.3	0.3 to 3	COc1ccc(-c2ccnc3cc(-c4cc(OC)c(OC)c(OC)c4)oc23)c(OC)c1 [Compound A28, 7-(2,4-Dimethoxy-phenyl)-2-(3,4,5-trimethoxy-phenyl)-furo[3,2-b]pyridine]
< 0.3	0.3 to 3	COc1cc(-c2ccnc3cc(-c4cc(OC)c(OC)c(OC)c4)oc23)ccn1 [Compound A29, 7-(2-Methoxy-pyridin-4-yl)-2-(3,4,5-trimethoxy-phenyl)-furo[3,2-b]pyridine]
< 0.3	3 to 50	COc1cc(-c2cc3nccc(-c4cccc(O)c4)c3o2)cc(OC)c1OC [Compound A36, 3-[2-(3,4,5-Trimethoxy-phenyl)-furo[3,2-b]pyridin-7-yl]-phenol]
< 0.3	0.3 to 3	COc1cc(-c2cc3nccc(-c4ccc(CN)cc4)c3o2)cc(OC)c1OC [Compound A53, 4-[2-(3,4,5-Trimethoxy-phenyl)-furo[3,2-b]pyridin-7-yl]-benzylamine]
< 0.3	–	COc1cc(-c2cc3nccc(-c4cccc(C(=O)NCCO)c4)c3o2)cc(OC)c1OC [Compound C5]
< 0.3	–	CNC(=O)COc1cccc(-c2ccnc3cc(-c4cc(OC)c(OC)c(OC)c4)oc23)c1 [Compound C8]
< 0.3	–	COc1cc(-c2cc3nccc(-c4cccc(C(=O)NCc5cc[nH]n5)c4)c3o2)cc(OC)c1OC [Compound C10]
< 0.3	–	COc1cc(-c2cc3nccc(-c4cccnc4)c3o2)cc(OC)c1OC [Compound C13]
0.3 to 3	–	COc1cc(-c2cc3nccc(-c4ccccc4C(C)C)c3o2)cc(OC)c1OC [Compound C14]
< 0.3	–	COc1cc(-c2cc3nccc(-c4cnc(F)cc4C)c3o2)cc(OC)c1OC [Compound C23]
0.3 to 3	–	COc1cc(-c2cc3nccc(-c4ccc(OC5CCOCC5)nc4)c3o2)cc(OC)c1OC [Compound C28]
< 0.3	–	COc1cc(-c2cc3nccc(-c4ccc5[nH]c(=O)[nH]c5c4)c3o2)cc(OC)c1OC [Compound C56]
0.3 to 3	< 0.3	COc1cc(-c2cc3nccc(C4=CCOCC4)c3o2)cc(OC)c1OC [Compound C68]
0.3 to 3	–	COc1cc(-c2cc3nccc(-c4cnc(N)cc4C)c3o2)cc(OC)c1OC [Compound C75]
0.3 to 3	–	COc1cc(-c2cc3nccc(-c4csc(N(C)C)n4)c3o2)cc(OC)c1OC [Compound C79]
< 0.3	–	COc1cc(-c2cc3nccc(-c4ccccc4O)c3o2)cc(OC)c1OC [Compound C85]
< 0.3	–	COc1cc(-c2cc3nccc(-c4ccc5[nH]c(-c6cn[nH]c6)nc5c4)c3o2)cc(OC)c1OC [Compound C90]
0.3 to 3	–	COc1cc(-c2cc3nccc(-c4ccc[nH]4)c3o2)cc(OC)c1OC [Compound C105]
